≈ marks a conversion by molar mass, not a printed value. Like-named read-outs stand apart in the source and are kept apart here.
Legend:
3PC cells = assay: ATP-bioluminescence assay, reactive oxygen species-stimulated growth of cells; assay type: cell-based
[1] = system: DMBA-induced epidermal hyperplasia; assay: Inhibition of DMBA-induced epidermal hyperplasia in mouse skin; assay type: in vivo, female SENCAR mice
Protocol: One of the best studied in vivo models for evaluation of environmental stress response effects on DNA and cell damage is the mouse skin system in which the skin is treated with a chemical compound known to damage DNA and cell structure and function. […] Exp. Med. Biol. 1995, 369, 167). […] Following dosing and treatment, skin DNA and cell structure and function were evaluated using three endpoints, epidermal hyperplasia, 8-OH-dG formation, and Ha-ras mutation. Each method is described briefly below. Seven week old, pathogen free, female SENCAR mice were purchased from the National Cancer Institute (NCI, Frederick, Md.). Mice were randomized by weight and separated into groups (n=5 mice per group). Experimental groups of mice were treated on shaved dorsal skin with antioxidants, 15 min prior to treatment with DMBA (25 μg per treatment). In topical experiments, different doses, i.e., 0.5, 1.0, 2.0, and/or 4.0 mg, of test or reference antioxidants per mouse were applied topically twice weekly for a total of 8 treatments (4 weeks). […] Negative control groups were treated with vehicle (acetone) only. […] Most antioxidants were administered in acetone. Antioxidants that were not soluble in acetone to the desired concentration, were dissolved in the necessary volume: mixture of acetone and water or ethanol. All topical treatments were administered in a final volume of 0.2 mL. […] The same control groups were maintained. Both positive and negative control groups were fed a standard AIN-93G diet (i.e., not supplemented with antioxidants). […] At sacrifice the shaved dorsal skin section was removed. […] Epidermal thickness was determined in each animal from at least 20 randomly selected sites per animal using formalin-fixed, paraffin-embedded 5 μm sections stained with hematoxylin and eosin. The remaining skin was frozen in liquid nitrogen. All frozen sections were stored at −70 C until analysis for isolation of DNA.

codon 61 of c-Ha-ras = assay: DMBA-induced Ha-ras codon 61 mutation in mouse skin DNA; assay type: in vivo, female SENCAR mice; settings: acetone neg. control 3.05
Protocol: One of the best studied in vivo models for evaluation of environmental stress response effects on DNA and cell damage is the mouse skin system in which the skin is treated with a chemical compound known to damage DNA and cell structure and function. […] Exp. Med. Biol. 1995, 369, 167). […] Following dosing and treatment, skin DNA and cell structure and function were evaluated using three endpoints, epidermal hyperplasia, 8-OH-dG formation, and Ha-ras mutation. Each method is described briefly below. Seven week old, pathogen free, female SENCAR mice were purchased from the National Cancer Institute (NCI, Frederick, Md.). Mice were randomized by weight and separated into groups (n=5 mice per group). Experimental groups of mice were treated on shaved dorsal skin with antioxidants, 15 min prior to treatment with DMBA (25 μg per treatment). […] Epidermal thickness was determined in each animal from at least 20 randomly selected sites per animal using formalin-fixed, paraffin-embedded 5 μm sections stained with hematoxylin and eosin. […] DNA isolated from freshly-frozen tissues of 5 mice per group was analyzed for […] of c-Ha-ras by PCR analysis. […] The ratio of the amount of wild type DNA to mutated DNA was determined by quantifying intensity of 32P labeling on autoradiograms. […]

[2] = 3PC cells, read-out: Estimated IC50 (mg/L) in ATP Bioluminescence Assay

O=C1O[C@H]([C@@H](O)CO)C(O)=C1O [Ascorbic Acid, L-ascorbic acid]
IC50 (3PC cells; [2]): 4.6 mg/L (≈ 26.1 µM)
IC50 (3PC cells; ATP bioluminescence, calculated on ascorbic acid content, read-out: Estimated IC50 Based on vitamin C content): 4.6 mg/L (≈ 26.1 µM)
IC50 (3PC cells; ATP bioluminescence, read-out: Estimated IC50 based on weight): 4.6 mg/L (≈ 26.1 µM)
Inhibition of DMBA-Induced Epidermal Hyperplasia ([1]; dietary 1.0%): 83%
Inhibition of DMBA-Induced Epidermal Hyperplasia ([1]; dietary 5.0%): 86%
Inhibition of DMBA-Induced Epidermal Hyperplasia ([1]; topical application 0.5 mg): 66%
Inhibition of DMBA-Induced Epidermal Hyperplasia ([1]; topical application 2.0 mg): 66%
Ha-ras Formation (codon 61 of c-Ha-ras; topical 4 mg + DMBA): 6.19

Cc1c2ccccc2c(C)c2c1ccc1ccccc12 [DMBA, dimethylbenzanthracene]
Ha-ras Formation (codon 61 of c-Ha-ras; DMBA only (pos. control)): 18.39

CC1=C[C@H](O)CC(C)(C)[C@H]1/C=C/C(C)=C/C=C/C(C)=C/C=C/C=C(C)/C=C/C=C(C)/C=C/C1=C(C)C[C@@H](O)CC1(C)C [Lutein, lutein]
IC50 (3PC cells; [2]): 70.8 mg/L (≈ 124 µM)

— patent US20070243270A1, “METHODS AND KITS FOR REDUCING CELLULAR DAMAGE, INHIBITING FREE RADICAL PRODUCTION, AND SCAVENGING FREE RADICALS IN MAMMALS” (priority 2003, published 2007)
